Counter-ions that a name gives are not always drawn. Like-named read-outs stand apart in the source and are kept apart here.
Columns and labels:
Test in all cases: AK assay 384-well format, Prestwick library screening
[1] = tested on: S. aureus strain USA300-0114; assay type: cell-based, Staphylococcus aureus; conditions: 50 μM final drug concentration; for fold induction at 50 µM: Staphylococcus aureus, USA300, 3 h
E. cloacae = assay type: cell-based, Enterobacter cloacae; conditions: 50 μM final drug concentration; for fold induction at 50 µM: Enterobacter cloacae, 3 h
K. pneumoniae = assay type: cell-based, Klebsiella pneumoniae; conditions: 50 μM final drug concentration; for fold induction at 50 µM: Klebsiella pneumoniae, 3 h
[2] = tested on: A. baumannii strain 98-37-09; assay type: cell-based, Acinetobacter baumannii; conditions: 50 μM final drug concentration; for fold induction at 50 µM: Acinetobacter baumannii, 983709, 3 h
P. aeruginosa = assay type: cell-based, Pseudomonas aeruginosa; conditions: 50 μM final drug concentration; for fold induction at 50 µM: Pseudomonas aeruginosa, 3 h
E. faecium = assay type: cell-based, Enterococcus faecium; conditions: 50 μM final drug concentration; for fold induction at 50 µM: Enterococcus faecium, 3 h
E. coli = assay type: cell-based, Escherichia coli; conditions: 50 μM final drug concentration; for fold induction at 50 µM: Escherichia coli, 3 h
[3] = 384-well format, cutoff for positive-scoring molecules 3-fold increase, read-out: AK-based Prestwick Library Screening Results, S. aureus (increase in extracellular AK activity)
[4] = 384-well format, cutoff for positive-scoring molecules 3-fold increase, read-out: AK-based Prestwick Library Screening Results, E. cloacae (increase in extracellular AK activity)
[5] = 384-well format, cutoff for positive-scoring molecules 3-fold increase, read-out: AK-based Prestwick Library Screening Results, K. pneumoniae (increase in extracellular AK activity)
[6] = 384-well format, cutoff for positive-scoring molecules 3-fold increase, read-out: AK-based Prestwick Library Screening Results, A. baumannii (increase in extracellular AK activity)
[7] = 384-well format, cutoff for positive-scoring molecules 3-fold increase, read-out: AK-based Prestwick Library Screening Results, P. aeruginosa (increase in extracellular AK activity)
[8] = 384-well format, cutoff for positive-scoring molecules 3-fold increase, read-out: AK-based Prestwick Library Screening Results, E. faecium (increase in extracellular AK activity)
[9] = 384-well format, cutoff for positive-scoring molecules 3-fold increase, read-out: AK-based Prestwick Library Screening Results, E. coli (increase in extracellular AK activity)
[10] = planktonic, cutoff for positive-scoring molecules 3-fold increase, read-out: AK-based Prestwick Library Screening Results, S. aureus (fold increase in extracellular AK activity)
[11] = planktonic, cutoff for positive-scoring molecules 3-fold increase, read-out: AK-based Prestwick Library Screening Results, E. cloacae (fold increase in extracellular AK activity)
[12] = planktonic, cutoff for positive-scoring molecules 3-fold increase, read-out: AK-based Prestwick Library Screening Results, K. pneumoniae (fold increase in extracellular AK activity)
[13] = planktonic, cutoff for positive-scoring molecules 3-fold increase, read-out: AK-based Prestwick Library Screening Results, A. baumannii (fold increase in extracellular AK activity)
[14] = planktonic, cutoff for positive-scoring molecules 3-fold increase, read-out: AK-based Prestwick Library Screening Results, P. aeruginosa (fold increase in extracellular AK activity)
[15] = planktonic, cutoff for positive-scoring molecules 3-fold increase, read-out: AK-based Prestwick Library Screening Results, E. faecium (fold increase in extracellular AK activity)
[16] = planktonic, cutoff for positive-scoring molecules 3-fold increase, read-out: AK-based Prestwick Library Screening Results, E. coli (fold increase in extracellular AK activity)
[17] = planktonic S. aureus, 384-well, cutoff for positive-scoring molecules 3-fold increase, read-out: AK-based Prestwick Library Screening Results: S. aureus (increase in extracellular AK activity)
[18] = planktonic E. cloacae, 384-well, cutoff for positive-scoring molecules 3-fold increase, read-out: AK-based Prestwick Library Screening Results: E. cloacae (increase in extracellular AK activity)
[19] = planktonic K. pneumoniae, 384-well, cutoff for positive-scoring molecules 3-fold increase, read-out: AK-based Prestwick Library Screening Results: K. pneumoniae (increase in extracellular AK activity)
[20] = planktonic A. baumannii, 384-well, cutoff for positive-scoring molecules 3-fold increase, read-out: AK-based Prestwick Library Screening Results: A. baumannii (increase in extracellular AK activity)
[21] = planktonic P. aeruginosa, 384-well, cutoff for positive-scoring molecules 3-fold increase, read-out: AK-based Prestwick Library Screening Results: P. aeruginosa (increase in extracellular AK activity)
[22] = planktonic E. faecium, 384-well, cutoff for positive-scoring molecules 3-fold increase, read-out: AK-based Prestwick Library Screening Results: E. faecium (increase in extracellular AK activity)
[23] = planktonic E. coli, 384-well, cutoff for positive-scoring molecules 3-fold increase, read-out: AK-based Prestwick Library Screening Results: E. coli (increase in extracellular AK activity)
[24] = 384-well format, cutoff for positive-scoring molecules 3-fold increase

In the case of COc1ccc(CN(CCN(C)C)c2ccccn2)cc1 [Pyrilamine maleate], the fold induction at 50 µM ([1]; planktonic S. aureus, 384-well, […], read-out: AK-based Prestwick Library Screening Results: S. aureus (increase in extracellular AK activity)) is reported as 1.4, the fold induction at 50 µM (E. cloacae; planktonic E. cloacae, 384-well, […], read-out: AK-based Prestwick Library Screening Results: E. cloacae (increase in extracellular AK activity)) is reported as 1.4 and the fold induction at 50 µM (K. pneumoniae; planktonic K. pneumoniae, 384-well, […], read-out: AK-based Prestwick Library Screening Results: K. pneumoniae (increase in extracellular AK activity)) is reported as 1. For the same compound, the fold induction at 50 µM ([2]; planktonic A. baumannii, 384-well, […], read-out: AK-based Prestwick Library Screening Results: A. baumannii (increase in extracellular AK activity)) was 1.1, the fold induction at 50 µM (P. aeruginosa; planktonic P. aeruginosa, 384-well, […], read-out: AK-based Prestwick Library Screening Results: P. aeruginosa (increase in extracellular AK activity)) was 1.1 and the fold induction at 50 µM (E. faecium; planktonic E. faecium, 384-well, […], read-out: AK-based Prestwick Library Screening Results: E. faecium (increase in extracellular AK activity)) was 1.2. It also gave a fold induction at 50 µM (E. coli; planktonic E. coli, 384-well, […], read-out: AK-based Prestwick Library Screening Results: E. coli (increase in extracellular AK activity)) of 1.4.
Cn1c(=O)c2c(ncn2CC(O)CO)n(C)c1=O (stereo not drawn) [Diprophylline] showed a fold induction at 50 µM [1, 3] of 0.7, a fold induction at 50 µM (E. cloacae; [4]) of 1.1 and a fold induction at 50 µM (K. pneumoniae; [5]) of 0.6. The fold induction at 50 µM [2, 6] was 0.8, the fold induction at 50 µM (P. aeruginosa; [7]) was 0.7 and the fold induction at 50 µM (E. faecium; [8]) was 0.9. It also gave a fold induction at 50 µM (E. coli; [9]) of 1.
Compound CN/C(=N/CCSCc1nc[nH]c1C)NC#N [Cimetidine] has a fold induction at 50 µM [1, 3] of 0.8, a fold induction at 50 µM (E. cloacae; [4]) of 1 and a fold induction at 50 µM (K. pneumoniae; [5]) of 0.7. The fold induction at 50 µM [2, 6] was 0.8, the fold induction at 50 µM (P. aeruginosa; [7]) was 0.8 and the fold induction at 50 µM (E. faecium; [8]) was 0.9. The fold induction at 50 µM (E. coli; [9]) was 0.9.
With CC(C)c1c(CN(C)C(C)Cc2ccccc2)n(C)n(-c2ccccc2)c1=O (stereo not drawn) [Famprofazone] the fold induction at 50 µM ([1]; […], read-out: AK-based Prestwick Library Screening Results, S. aureus (fold increase in extracellular AK activity)) was 0.8, the fold induction at 50 µM (E. cloacae; […], read-out: AK-based Prestwick Library Screening Results, E. cloacae (fold increase in extracellular AK activity)) was 1.5 and the fold induction at 50 µM (K. pneumoniae; […], read-out: AK-based Prestwick Library Screening Results, K. pneumoniae (fold increase in extracellular AK activity)) was 1.1. For the same compound, the fold induction at 50 µM ([2]; […], read-out: AK-based Prestwick Library Screening Results, A. baumannii (fold increase in extracellular AK activity)) was 1.1, the fold induction at 50 µM (P. aeruginosa; […], read-out: AK-based Prestwick Library Screening Results, P. aeruginosa (fold increase in extracellular AK activity)) was 1.2 and the fold induction at 50 µM (E. faecium; […], read-out: AK-based Prestwick Library Screening Results, E. faecium (fold increase in extracellular AK activity)) was 1. For the same compound, the fold induction at 50 µM (E. coli; […], read-out: AK-based Prestwick Library Screening Results, E. coli (fold increase in extracellular AK activity)) was 1.2.
Compound COc1ccc2cc1Oc1ccc(cc1)C[C@H]1c3cc(c(OC)cc3CCN1C)Oc1c(OC)c(OC)cc3c1[C@H](C2)N(C)CC3 [Tetrandrine] has a fold induction at 50 µM [1, 10] of 0.9, a fold induction at 50 µM (E. cloacae; [11]) of 1.1 and a fold induction at 50 µM (K. pneumoniae; [12]) of 0.9. For the same compound, the fold induction at 50 µM [2, 13] was 0.9, the fold induction at 50 µM (P. aeruginosa; [14]) was 0.9 and the fold induction at 50 µM (E. faecium; [15]) was 1. The fold induction at 50 µM (E. coli; [16]) was 0.9.
O=C(O)CCNC(=O)c1ccc(/N=N/c2ccc(O)c(C(=O)O)c2)cc1 [Balsalazide Sodium] gave a fold induction at 50 µM [1, 10] of 0.4, a fold induction at 50 µM (E. cloacae; [11]) of 0.4 and a fold induction at 50 µM (K. pneumoniae; [12]) of 0.7. For the same compound, the fold induction at 50 µM [2, 13] was 0.5, the fold induction at 50 µM (P. aeruginosa; [14]) was 0.5 and the fold induction at 50 µM (E. faecium; [15]) was 0.9. For the same compound, the fold induction at 50 µM (E. coli; [16]) was 0.5.
CS(=O)(=O)c1ccc([C@@H](O)[C@@H](CO)NC(=O)C(Cl)Cl)cc1 [Thiamphenicol] was tested, and the fold induction at 50 µM [1, 3] was 8.7, the fold induction at 50 µM (E. cloacae; [4]) was 1.4 and the fold induction at 50 µM (K. pneumoniae; [5]) was 0.4. It also gave a fold induction at 50 µM [2, 6] of 0.9, a fold induction at 50 µM (P. aeruginosa; [7]) of 0.8 and a fold induction at 50 µM (E. faecium; [8]) of 0.9. The fold induction at 50 µM (E. coli; [9]) was 0.9.
Compound Clc1ccc(COC(Cn2ccnc2)c2ccc(Cl)cc2Cl)c(Cl)c1 (stereo not drawn) [Miconazole] has a fold induction at 50 µM [1, 17] of 2.2, a fold induction at 50 µM (E. cloacae; [18]) of 1.6 and a fold induction at 50 µM (K. pneumoniae; [19]) of 1.4. The fold induction at 50 µM [2, 20] was 4.7, the fold induction at 50 µM (P. aeruginosa; [21]) was 1.2 and the fold induction at 50 µM (E. faecium; [22]) was 2.5. For the same compound, the fold induction at 50 µM (E. coli; [23]) was 1.4.
With COc1ccccc1N1CCN(CCCNc2cc(=O)n(C)c(=O)n2C)CC1 [Urapidil hydrochloride] the fold induction at 50 µM [1, 10] was 0.9, the fold induction at 50 µM (E. cloacae; [11]) was 1.1 and the fold induction at 50 µM (K. pneumoniae; [12]) was 0.7. The fold induction at 50 µM [2, 13] was 1, the fold induction at 50 µM (P. aeruginosa; [14]) was 1 and the fold induction at 50 µM (E. faecium; [15]) was 0.9. For the same compound, the fold induction at 50 µM (E. coli; [16]) was 1.
CC[C@@]1(O)C(=O)OCc2c1cc1n(c2=O)Cc2cc3ccccc3nc2-1 [Camptothecine (S,+)] was tested, and the “AK-based Prestwick Library Screening Results, S. aureus (increase in extracellular AK activity)” value [1, 24] was 0.7, the “AK-based Prestwick Library Screening Results, E. cloacae (increase in extracellular AK activity)” value (E. cloacae; [24]) was 1.1 and the “AK-based Prestwick Library Screening Results, K. pneumoniae (increase in extracellular AK activity)” value (K. pneumoniae; [24]) was 0.8. For the same compound, the “AK-based Prestwick Library Screening Results, A. baumannii (increase in extracellular AK activity)” value [2, 24] was 0.8, the “AK-based Prestwick Library Screening Results, P. aeruginosa (increase in extracellular AK activity)” value (P. aeruginosa; [24]) was 0.8 and the “AK-based Prestwick Library Screening Results, E. faecium (increase in extracellular AK activity)” value (E. faecium; [24]) was 0.9. The “AK-based Prestwick Library Screening Results, E. coli (increase in extracellular AK activity)” value (E. coli; [24]) was 0.9.
Work on COc1cc(C(=O)NCc2ccc(OCCN(C)C)cc2)cc(OC)c1OC [Trimethobenzamide hydrochloride] yielded a fold induction at 50 µM [1, 17] of 1.2, a fold induction at 50 µM (E. cloacae; [18]) of 1.3 and a fold induction at 50 µM (K. pneumoniae; [19]) of 1.1. The fold induction at 50 µM [2, 20] was 1.2, the fold induction at 50 µM (P. aeruginosa; [21]) was 1 and the fold induction at 50 µM (E. faecium; [22]) was 1.1. For the same compound, the fold induction at 50 µM (E. coli; [23]) was 1.2.
In the case of COC(=O)C1=CO[C@@H](C)[C@H]2CN3CCc4c([nH]c5ccccc45)[C@@H]3C[C@H]12.Cl [Ajmalicine hydrochloride], the “AK-based Prestwick Library Screening Results, S. aureus (increase in extracellular AK activity)” value ([1]; planktonic S. aureus, cutoff for positive-scoring molecules 3-fold increase) is reported as 0.5, the “AK-based Prestwick Library Screening Results, E. cloacae (increase in extracellular AK activity)” value (E. cloacae; planktonic E. cloacae, cutoff for positive-scoring molecules 3-fold increase) is reported as 1.2 and the “AK-based Prestwick Library Screening Results, K. pneumoniae (increase in extracellular AK activity)” value (K. pneumoniae; planktonic K. pneumoniae, cutoff for positive-scoring molecules 3-fold increase) is reported as 0.7. The “AK-based Prestwick Library Screening Results, A. baumannii (increase in extracellular AK activity)” value ([2]; planktonic A. baumannii, cutoff for positive-scoring molecules 3-fold increase) was 0.9, the “AK-based Prestwick Library Screening Results, P. aeruginosa (increase in extracellular AK activity)” value (P. aeruginosa; planktonic P. aeruginosa, cutoff for positive-scoring molecules 3-fold increase) was 0.9 and the “AK-based Prestwick Library Screening Results, E. faecium (increase in extracellular AK activity)” value (E. faecium; planktonic E. faecium, cutoff for positive-scoring molecules 3-fold increase) was 0.9. For the same compound, the “AK-based Prestwick Library Screening Results, E. coli (increase in extracellular AK activity)” value (E. coli; planktonic E. coli, cutoff for positive-scoring molecules 3-fold increase) was 0.9.

Reference: patent US10004701B2, “Methods and compositions for treating infection” (UNIVERSITY OF ROCHESTER, priority 2012, dated 2018)
